Measurements taken from patent EP2891491A1, “Use of (r)-phenylpiracetam for the treatment of sleep disorders” (Merz Pharma GmbH & Co. KGaA, priority 2014, dated 2015).
Where “and” joins values, the source holds several entries; their conditions need not be identical. Equal values may be shown once.

Legend:
[1] = target: T1, neuronal dopamine re-uptake transporter (Homo sapiens, UniProt Q01959); assay: functional monoamine transporter assay: [3H]-dopamine uptake in CHO-K1 cells expressing dopamine transporters; assay type: cell-based; details: functional assays, read-out: affinity for the neuronal dopamine re-uptake transporter
T1 construct: expressed in transfected cells
Description: Using functional monoamine transporter assays, we determined the potential drug targets for (R)-phenylpiracetam.
Recombinant Chinese hamster ovary (CHO) cells CHO-K1 (ATCC® CCL-61 ™) cells stably expressing dopamine transporters are plated. The cells (2 x 10^5/ml) are pre-incubated with test compound and/or vehicle in modified Tris-HEPES buffer pH 7.1 at 25°C for 20 min and 50 nM [^3H]-dopamine is then added for an additional 15 min incubation period. Non-specific signal is determined in the presence of 10 µM nomifensine. Cells are then solubilized with 1% SDS lysis buffer. Reduction of [^3H]-dopamine uptake by 50 percent or more (≥50%) relative to vehicle controls indicates significant inhibitory activity. Compounds are screened at 10, 1, 0.1, 0.01 and 0.001 µM. These same concentrations are concurrently applied to a separate group of untreated cells and evaluated for possible compound-induced cytotoxicity only if significant inhibition of uptake is observed.

[2] = system: subjects with Parkinson's Disease; assay: clinical study of EDS in Parkinson patients, Epworth Sleepiness Scale; assay type: in vivo, humans; details: 50 mg bid for 4 weeks, oral, adjunct to L-Dopa
Description: In a prospective, randomized, double-blind, placebo-controlled, parallel group, multicenter study the tolerability, safety and efficacy of (R)-Phenylpiracetam after oral administration adjunct to L-Dopa treatment is confirmed. After a screening period of one week 36 subjects with Parkinson's Disease receive 50 mg (R)-Phenylpiracetam or placebo bid at 8.00 am and 3.00 pm for 4 weeks. A safety follow-up is performed 1 week after the double-blind treatment period. Visits take place 1 week before randomization (V1, day -7), at baseline (V2, day 1), at Week 2 (V3) and Week 4 (V4). A safety follow-up (V5) is performed 1 week after the last intake of study medication. An assessment of excessive daily sleepiness using the Epworth Sleepiness Scale [ESS] takes place at screening, baseline, week 2 and week 4.
The questionnaire asks the subject to rate his or her probability of falling asleep on a scale of increasing probability from 0 to 3 for 8 different situations that most people engage in during their daily lives, though not necessarily every day (Johns et al. J Neurol Neurosurg Psychiatry. 2005;76(12):1636). The scores for the 8 questions are added together to obtain a single number. […]
The absolute change of ESS from day 1 to day 14 and 28 is analyzed.

rats = assay: motivation tests: progressive ratio task, cost-benefit choice test, consumption test; assay type: in vivo
Description: EXAMPLE 6: Effect of (R)-phenylpiracetam in motivation tests - Figs. 5, 6, 7, 8
Methylphenidate purchased from Sigma (Taufkirchen, Germany) was dissolved in distilled water fresh for each test day. D-Amphetamine purchased from Sigma (Taufkirchen, Germany) was dissolved in 0.9% sterile NaCl solution fresh for each test day. (R)-Phenylpiracetam was dissolved in distilled water fresh for each test day.
One hundred and three male Sprague-Dawley rats (Janvier, Le Genest-St-Isle, France) weighing 225-250 g on arrival were used.
The animals were kept under standard laboratory conditions in groups of up to 4 per care with ad libitum access to water. Standard diet for rodents (Altromin) was available to the animals at 15 g per animal/day
For each test described below, two independent experiments were performed using an identical protocol. After continuous reinforcement training (CRF) training (see below) all animals were assigned to treatment groups, such that performance across all the groups was similar. The treatment groups were evenly distributed throughout the caging system.
In experiment 1 and 2 the following protocols were used:
Overview: Three tests were performed in a consecutive manner on subsequent days. On day 1-2, animals were habituated individually to Skinner boxes in two sessions, one per day, for 30 min. Animals received "free" food pellets at a random time (one pellet per minute on average). On days 3-8 animals were trained in Skinner boxes on a continuous reinforcement schedule (one pellet per lever press). On days 9-10 they were tested in the progressive ratio test (Test 1) off-drug, on days 11-12 on-drug. On day 13, a choice test (Test 2) was performed on-drug, on day 14, a consumption test (Test 3) was performed on-drug. Below, tests are described in detail.
Behavioral testing was conducted in 12 operant test chambers (Med Associates, St. Albans, USA). Each chamber was equipped with a retractable lever, a food dispenser with receptacle, an overhead house light and two stimulus lights, one above the lever and the other above the food receptacle. An infrared photocell beam detected nose pokes into the food receptacle. The apparatus was controlled by a computer system (SmartControl®-Interface and MedPC-software, Med Associates, St. Albans, USA). The light above the food receptacle indicated the delivery of a food pellet in the receptacle. Rats were first habituated to the operant boxes for two sessions (30 min each) on two consecutive days. Thereafter, animals were trained for six sessions on the CRF schedule for 30 min. Followed by 4 sessions (two session off-drug followed by two sessions on-drug) of an increasing fixed ratio (FR) schedule in steps of 5, with 3 repetitions of each step (i.e. 1-1-1; 5-5-5; 10-10-10; ...). When the required FR value of each trial was achieved the light above the food receptacle indicated the delivery of a single food pellet (45 mg, Bioserve, USA). The light remained on until the rat poked its nose in the receptacle. Lever presses while the light was on were counted as perseverative lever presses; they were counted but had no programmed consequences. […] For each session, the value of the last completed ratio (breaking point) was recorded as well as the amount of received rewards, the perseverative lever presses, the duration of the session and the latency to respond. Animals of all treatment groups received respective vehicle/drug infusions 30 min pre-test on the final two sessions involving testing under a PR schedule.
In this task the rats had the choice between working for their preferred food (Bioserve pellets) by pressing the lever on a PR schedule as described above or obtaining lab chow being freely available in a dish (about 15 g) within the operant chamber. The food receptacle and the lever were positioned on the same wall of the operant chamber, the dish containing the lab chow was situated in a corner on the opposite side of the operant chamber. […]

[3] = in vivo; cited from earlier work
[4] = just slightly stronger with (R)- than with (S)-phenylpiracetam; cited from earlier work

T1 sequence (Q01959 whole entry): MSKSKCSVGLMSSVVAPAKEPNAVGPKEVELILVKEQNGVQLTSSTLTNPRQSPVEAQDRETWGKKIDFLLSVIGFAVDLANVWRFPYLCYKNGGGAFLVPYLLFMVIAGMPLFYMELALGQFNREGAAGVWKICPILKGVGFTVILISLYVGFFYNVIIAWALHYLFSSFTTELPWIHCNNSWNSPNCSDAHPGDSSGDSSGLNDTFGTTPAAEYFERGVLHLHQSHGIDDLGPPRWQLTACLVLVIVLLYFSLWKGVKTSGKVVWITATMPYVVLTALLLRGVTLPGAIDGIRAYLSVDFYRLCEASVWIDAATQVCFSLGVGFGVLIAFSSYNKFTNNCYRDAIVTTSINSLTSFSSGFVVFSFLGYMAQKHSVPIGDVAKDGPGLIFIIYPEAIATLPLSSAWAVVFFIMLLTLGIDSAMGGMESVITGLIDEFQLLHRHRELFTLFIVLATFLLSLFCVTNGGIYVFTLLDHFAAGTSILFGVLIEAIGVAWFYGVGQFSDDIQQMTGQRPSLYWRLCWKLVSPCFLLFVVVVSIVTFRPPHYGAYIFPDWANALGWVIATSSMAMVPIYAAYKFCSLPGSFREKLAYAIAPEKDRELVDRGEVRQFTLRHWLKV

## NC(=O)CN1C[C@@H](c2ccccc2)CC1=O [(R)-phenylpiracetam]
[1]
  IC50: ~13 µM and 13 µM
[2]
  improvement of ESS (absolute change from day 1 to day 14 and 28): at least 3 points
rats; cost-benefit choice test
  consumption of freely available normal food: does not increase
rats; drug 30 min pre-test
  motivation, i.e. the work load animals are willing to perform to obtain more rewarding food: increases motivation
rats; progressive ratio and cost benefit tests
  effect on motivation compared with methylphenidate and amphetamine: much stronger than that of methylphenidate and amphetamine
[3]
  memory function in the passive avoidance test: enhanced memory function significantly better compared to (S)-phenylpiracetam
[4]
  locomotor activity in the open-field test: significant increase
